Data: patent publication US20260014147A1, “STAT6 DEGRADERS” (Gilead Sciences, Inc., priority 2024, published 2026)

Target: T1, STAT6 (endogenous, HiBiT-tagged) in HeLa LgBiT clone 4.14 cells (Homo sapiens, UniProt P42226)
T1 construct: These cells express endogenous STAT6; host or cells: HeLa LgBiT clone 4.14
T1 sequence (P42226 1-847): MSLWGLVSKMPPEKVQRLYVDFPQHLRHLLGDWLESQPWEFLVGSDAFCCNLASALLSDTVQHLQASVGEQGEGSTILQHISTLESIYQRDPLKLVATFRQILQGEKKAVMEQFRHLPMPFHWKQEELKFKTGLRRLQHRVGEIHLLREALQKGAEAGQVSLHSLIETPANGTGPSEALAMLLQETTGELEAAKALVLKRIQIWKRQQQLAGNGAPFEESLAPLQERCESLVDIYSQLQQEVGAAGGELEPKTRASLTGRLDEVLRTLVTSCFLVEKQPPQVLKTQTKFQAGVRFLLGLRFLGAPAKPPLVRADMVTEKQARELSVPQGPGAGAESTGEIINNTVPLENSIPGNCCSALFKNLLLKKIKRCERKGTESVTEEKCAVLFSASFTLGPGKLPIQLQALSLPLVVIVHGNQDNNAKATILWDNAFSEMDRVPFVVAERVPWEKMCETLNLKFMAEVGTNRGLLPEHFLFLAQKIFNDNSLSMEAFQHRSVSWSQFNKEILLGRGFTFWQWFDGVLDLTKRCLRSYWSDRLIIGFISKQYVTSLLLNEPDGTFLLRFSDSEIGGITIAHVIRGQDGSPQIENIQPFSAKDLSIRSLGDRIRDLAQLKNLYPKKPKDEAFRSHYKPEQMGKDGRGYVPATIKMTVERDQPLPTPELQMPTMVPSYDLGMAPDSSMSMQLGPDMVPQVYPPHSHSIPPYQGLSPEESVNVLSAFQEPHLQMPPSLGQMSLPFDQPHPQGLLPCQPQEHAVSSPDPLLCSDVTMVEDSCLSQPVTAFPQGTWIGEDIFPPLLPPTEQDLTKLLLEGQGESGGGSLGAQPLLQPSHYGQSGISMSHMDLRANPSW
Experiment: STAT6 Degrader Assay (HiBiT based, HeLa LgBiT clone 4.14 cells, luminescence, DC50)
Assay type: cell-based
Details: geometric mean; for DC50: DC50 provided for test compounds with >80% Emax, read-out: STAT6 degradation DC50; for Emax: Emax provided for test compounds with <80% Emax (and 2c15), read-out: STAT6 degradation Emax
Protocol: This was a HiBit based assay. A HeLa cell line stably transfected with a small protein, LgBit (Large Bit) was obtained from Promega. These cells express endogenous STAT6. A small 11 amino acid gene sequence (HiBiT) was inserted in the STAT6 gene using CRISPR technology. Once STAT6 protein is expressed in the cells, the HiBiT sequence will bind the LgBit in the cells resulting in a functional NanoBiT protein, giving a luminescent tag to STAT6. Single cell clones were prepared and the clone 4.14 was selected for the assay based on that clone showing high luminescence, high STAT6 phosphorylation upon stimulation with IL-4, and inhibition of luminescence when cells were treated with STAT6 siRNA. HeLa LgBiT clone 4.14 cells were suspended in DMEM with 10% FCS, 1% Pen/Strep, Na-pyrovate and Hygromycin B, at a concentration of […]. 5000 cells were added pr well of a 384 well plate and 20 nL of compound was added by Echo® liquid handler. NN6394A (terfenadine, a toxic compound) was added to control wells at 50 µM concentration to establish the assay window. In these wells the cells are dead which equals 100% degradation of STAT6. After 4-24 h of incubation at 37° C. under 5% CO2/95% air, […] substrate (Nano-GLO®) was added to the wells and the plates were centrifuged and incubated for 0.5 h. The luminescence in the wells as a measure of non-degraded STAT6 was measured in a plate reader (BMG Pherastar FSX). The dose-response curves for Examples 2a2, 2t1, 2 h3, and 2r1 are shown below (where percent degradation is plotted vs. test compound concentration in M on a log-scale).

| DC50 [µM] | Emax [%] | Compound |
| --- | --- | --- |
| 0.0033 |  | CNc1ccc(-c2ccnc3c2cc([C@H](C)N2CCC(c4ccc(C(=O)N5CCn6nc(CN7CCC(c8ccc(NC9CCC(=O)NC9=O)cc8F)CC7)cc6C5)cc4)CC2)n3C)cn1 (mixture of isomers) [Example 2c41, 3-((3-fluoro-4-(1-((5-(4-(1-((S)-1-(1-methyl-4-(6-(methylamino)pyridin-3-yl)-1H-pyrrolo[2,3-b]pyridin-2-yl)ethyl)piperidin-4-yl)benzoyl)-4,5,6,7-tetrahydropyrazolo[1,5-a]pyrazin-2-yl)methyl)piperidin-4-yl)phenyl)amino)piperidine-2,6-dione] |
| 0.0112 |  | CC(c1cc2c(-c3ccc(N)nc3)ccnc2n1C)N1CCC(c2ccc(C(=O)N3CCC(CN4CCN(c5ccc(N[C@H]6CCC(=O)NC6=O)cc5F)CC4)CC3)cc2)CC1 (single isomer, unassigned) [Example 2c11] |
| 0.0177 |  | CC(c1cc2c(-c3ccc(N)nc3)ccnc2n1C)N1CCC(c2ccc(C(=O)N3CCC(CN4CCN(c5ccc(N[C@@H]6CCC(=O)NC6=O)cc5F)CC4)CC3)cc2)CC1 (single isomer, unassigned) [Example 2c12] |
| 0.0054 |  | CNc1ccc(-c2ccnc3c2cc([C@H](C)N2CCC(c4ccc(C(=O)N5CCn6nc(CN7CCC(c8ccc(N[C@H]9CCC(=O)NC9=O)cc8F)CC7)cc6C5)cc4)CC2)n3C)cn1 (single isomer, unassigned) [Example 2c42] |
| 0.0016 |  | CNc1ccc(-c2ccnc3c2cc([C@H](C)N2CCC(c4ccc(C(=O)N5CCn6nc(CN7CCC(c8ccc(N[C@@H]9CCC(=O)NC9=O)cc8F)CC7)cc6C5)cc4)CC2)n3C)cn1 (single isomer, unassigned) [Example 2c43] |
| 0.0141 |  | CC(c1cc2c(-c3ccc(N)nc3)ccnc2n1C)N1CCC(c2ccc(C(=O)N3CCC(CN4CCN(c5ccc(NC6CCC(=O)NC6=O)cc5F)CC4)CC3)cc2)CC1 (centres unmarked) [Example 2c10, 3-((4-(4-((1-(4-(1-(1-(4-(6-aminopyridin-3-yl)-1-methyl-1H-pyrrolo[2,3-b]pyridin-2-yl)-ethyl)-piperidin-4-yl)benzoyl)piperidin-4-yl)methyl)piperazin-1-yl)-3-fluorophenyl)amino)piperidine-2,6-dione] |
|  | < 20 | C[C@H](c1cc2c(-c3ccc(N)nc3)ccnc2n1C)N1CCC(c2ccc(C(=O)N3CCC(CN4CCN(c5ccc(NC6CCC(=O)NC6=O)cc5F)CC4)CC3)cc2)CC1 (stereo partly drawn) [Example 2c13, 3-((4-(4-((1-(4-(1-((R)-1-(4-(6-aminopyridin-3-yl)-1-methyl-1H-pyrrolo[2,3-b]pyridin-2-yl)ethyl)-piperidin-4-yl)benzoyl)piperidin-4-yl)methyl)piperazin-1-yl)-3-fluorophenyl)amino)piperidine-2,6-dione] |

Continued, molecule first:

| Compound | DC50 [µM] | Emax [%] |
| --- | --- | --- |
| Cn1c(CN2CCC(c3ccc(C(=O)N4CCC(CN5CCN(c6ccc(N[C@H]7CCC(=O)NC7=O)cc6F)CC5)CC4)cc3)CC2)cc2c(-c3ccc4[nH]ncc4c3)ccnc21 (single isomer, unassigned) [Example 2c5] |  | 70 to 80 |
| Cn1c(CN2CCC(c3ccc(C(=O)N4CCC(CN5CCN(c6ccc(NC7CCC(=O)NC7=O)cc6F)CC5)CC4)cc3)CC2)cc2c(-c3ccc4[nH]ncc4c3)ccnc21 (single isomer, unassigned) [Example 2c6] | 0.0225 |  |
| COC(C)c1nc2cc(-c3ccnc4c3cc([C@H](C)N3CCC(c5ccc(C(=O)N6CCC(CN7CCN(c8ccc(NC9CCC(=O)NC9=O)cc8F)CC7)CC6)cc5)CC3)n4C)ccc2[nH]1 (stereo in doubt) [Example 2c21, 3-((3-fluoro-4-(4-((1-(4-(1-((S)-1-(4-(2-((R)-1-methoxyethyl)-1H-benzo[d]imidazol-5-yl)-1-methyl-1H-pyrrolo[2,3-b]pyridin-2-yl)ethyl)piperidin-4-yl)benzoyl)piperidin-4-yl)methyl)piperazin-1-yl)phenyl)amino)piperidine-2,6-dione] | 0.0044 |  |
| Cn1c(CN2CCC(c3ccc(C(=O)N4CCC(CN5CCN(c6ccc(NC7CCC(=O)NC7=O)cc6)CC5)CC4)cc3)CC2)cc2c(-c3ccc4[nH]ncc4c3)ccnc21 (centres unmarked) [Example 2b1, 3-((4-(4-((1-(4-(1-((4-(1H-indazol-5-yl)-1-methyl-1H-pyrrolo[2,3-b]pyridin-2-yl)methyl)piperidin-4-yl)benzoyl)piperidin-4-yl)methyl)piperazin-1-yl)phenyl)amino)piperidine-2,6-dione] | 0.0192 |  |
| Cn1c(CN2CCC(c3ccc(C(=O)N4CCC(CN5CCN(c6ccc(NC7CCC(=O)NC7=O)c(F)c6)CC5)CC4)cc3)CC2)cc2c(-c3ccc4[nH]ncc4c3)ccnc21 (centres unmarked) [Example 2b2, 3-((4-(4-((1-(4-(1-((4-(1H-indazol-5-yl)-1-methyl-1H-pyrrolo[2,3-b]pyridin-2-yl)methyl)piperidin-4-yl)benzoyl)piperidin-4-yl)methyl)piperazin-1-yl)-2-fluorophenyl)amino)piperidine-2,6-dione] |  | 70 to 80 |
| COCc1nc2cc(-c3ccnc4c3cc(CN3CCC(c5ccc(C(=O)N6CCC(CN7CCN(c8ccc(NC9CCC(=O)NC9=O)c(F)c8)CC7)CC6)cc5)CC3)n4C)ccc2[nH]1 (centres unmarked) [Example 2b3, 3-((2-fluoro-4-(4-((1-(4-(1-((4-(2-(methoxymethyl)-1H-benzo[d]imidazol-5-yl)-1-methyl-1H-pyrrolo[2,3-b]pyridin-2-yl)methyl)piperidin-4-yl)benzoyl)piperidin-4-yl)methyl)piperazin-1-yl)phenyl)amino)piperidine-2,6-dione] |  | 70 to 80 |
| Cn1c(CN2CCC(c3ccc(C(=O)N4CCC(CN5CCN(c6ccc(NC7CCC(=O)NC7=O)cc6F)CC5)CC4)cc3)CC2)cc2c(-c3ccc(N)nc3)ccnc21 (centres unmarked) [Example 2c2, 3-((4-(4-((1-(4-(1-((4-(6-aminopyridin-3-yl)-1-methyl-1H-pyrrolo[2,3-b]pyridin-2-yl)methyl)-piperidin-4-yl)benzoyl)piperidin-4-yl)methyl)piperazin-1-yl)-3-fluorophenyl)amino)piperidine-2,6-dione] |  | 50 to 60 |
| COCc1nc2cc(-c3ccnc4c3cc(CN3CCC(c5ccc(C(=O)N6CCC(CN7CCN(c8ccc(NC9CCC(=O)NC9=O)cc8F)CC7)CC6)cc5)CC3)n4C)ccc2[nH]1 (centres unmarked) [Example 2c4, 3-((3-fluoro-4-(4-((1-(4-(1-((4-(2-(methoxymethyl)-1H-benzo[d]imidazol-5-yl)-1-methyl-1H-pyrrolo[2,3-b]pyridin-2-yl)methyl)piperidin-4-yl)benzoyl)piperidin-4-yl)methyl)piperazin-1-yl)phenyl)-amino)piperidine-2,6-dione] |  | 70 to 80 |
| Cc1nc(N)ccc1-c1ccnc2c1cc(CN1CCC(c3ccc(C(=O)N4CCC(CN5CCN(c6ccc(NC7CCC(=O)NC7=O)cc6F)CC5)CC4)cc3)CC1)n2C (centres unmarked) [Example 2c7, 3-((4-(4-((1-(4-(1-((4-(6-amino-2-methylpyridin-3-yl)-1-methyl-1H-pyrrolo[2,3-b]pyridin-2-yl)methyl)piperidin-4-yl)benzoyl)piperidin-4-yl)methyl)piperazin-1-yl)-3-fluorophenyl)amino)piperidine-2,6-dione] |  | 30 to 40 |
| Cc1cc(C(=O)N2CCC(CN3CCN(c4ccc(NC5CCC(=O)NC5=O)cc4F)CC3)CC2)ccc1C1=CCN(Cc2cc3c(-c4ccc(N)nc4)ccnc3n2C)CC1 (centres unmarked) [Example 2c9, 3-((4-(4-((1-(4-(1-((4-(6-aminopyridin-3-yl)-1-methyl-1H-pyrrolo[2,3-b]pyridin-2-yl)methyl)-1,2,3,6-tetrahydropyridin-4-yl)-3-methylbenzoyl)piperidin-4-yl)methyl)piperazin-1-yl)-3-fluorophenyl)-amino)piperidine-2,6-dione] |  | 50 to 60 |
